Target: T1, Fad35R (Mycobacterium tuberculosis, UniProt O06169)
T1 construct: gene Rv2506
T1 sequence (O06169 entry or part of it): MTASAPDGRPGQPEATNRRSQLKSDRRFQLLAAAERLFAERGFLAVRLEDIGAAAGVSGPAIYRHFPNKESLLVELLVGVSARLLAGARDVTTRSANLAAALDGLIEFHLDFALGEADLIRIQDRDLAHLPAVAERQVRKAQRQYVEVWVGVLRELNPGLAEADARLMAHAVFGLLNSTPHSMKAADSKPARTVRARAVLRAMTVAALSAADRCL

CN(C)[C@@H]1C(=O)C(C(N)=O)=C(O)[C@@]2(O)C(=O)C3=C(O)c4c(O)cccc4[C@@](C)(O)[C@H]3C[C@@H]12 [tetracycline]
ligand-induced oligomerization: dynamic light scattering, size-exclusion chromat: Tc bound Fad35R has the propensity to form higher oligomers
